Measurements published in patent US20110136844A1, “METHODS FOR INHIBITING DYRK1A TO TREAT CENTRAL NERVOUS SYSTEM DISEASES AND DISORDERS” (MediProPharma, Inc., priority 2009, published 2011).
Marks after values point to notes of the source that are not given here.

Columns and labels:
[1] = Plasma pharmacokinetics after single dose in normal rats; assay type: in vivo, Sprague-Dawley rats; details: rat plasma, i.v. 10 mg/kg
Description: (§1) (IV) Pharmacokinetic Studies
(§2) The pharmacokinetic studies in Sprague-Dawley rats were performed using the protocols developed by WuXi AppTec (St. Paul, Minn., USA, and Shanghai, China. http://www.apptecls.com/).

[2] = Brain-plasma pharmacokinetics after single 10 mg/kg bolus i.v. injection in normal rats; assay type: in vivo, Sprague-Dawley rats; details: rat, 10 mg/kg i.v., the data is the value of AUC(inf)
Description: as §1, §2
The brain exposure of the compound of Example 1 is about […] higher than that required for inhibition of DYRK1A, with a Kd and IC50 at about 1 uM, or 280 ng/mL.

With `Cc1nc2c(c3c1[nH]c1ccccc13)C(=O)CC(C)(C)C2` [Example 1, 3,3,6-trimethyl-2,3,4,7-tetrahydroindolo[2,3-c]quinolin-1-one] the Co [1] was 4100 ng/mL, the “AUC0-t of Plasma” value ([2]; time 8 h) was 2350^b ng · h/mL and the “AUC0-t of Plasma” value ([2]; time 24 h) was 2350^b ng · h/mL.
